Results from patent US8497385B2, “Bryostatin analogues, synthetic methods and uses” (The Board of Trustees of the Leland Stanford Junior …, priority 2007, dated 2013).

Assays:
OVCAR-5 = test: NCI growth inhibition, OVCAR-5 (Ovarian); type: cell-based, human
K-562 = test: NCI growth inhibition, K-562 (Leukemia); type: cell-based, human
HL-60(TB) = type: cell-based, human
NCI/ADR-RES = test: NCI growth inhibition, NCI/ADR-RES (Breast); type: cell-based, human
BT-549 = test: NCI growth inhibition, BT-549 (Breast); type: cell-based, human
SK-MEL-28 = test: NCI growth inhibition, SK-MEL-28 (Melanoma); type: cell-based, human
SK-MEL-2 = test: NCI growth inhibition, SK-MEL-2 (Melanoma); type: cell-based, human
OVCAR-4 = test: NCI growth inhibition, OVCAR-4 (Ovarian); type: cell-based, human
COLO 205 = test: NCI growth inhibition, COLO 205 (Colon); type: cell-based, human
HCT-15 = test: NCI growth inhibition, HCT-15 (Colon); type: cell-based, human
SF-295 = test: NCI growth inhibition, SF-295 (CNS); type: cell-based, human
A549/ATCC = test: NCI growth inhibition, A549/ATCC (NSC Lung); type: cell-based, human
SR = test: NCI growth inhibition, SR (Leukemia); type: cell-based, human
SK-OV-3 = test: NCI growth inhibition, SK-OV-3 (Ovarian); type: cell-based, human
SNB-75 = test: NCI growth inhibition, SNB-75 (CNS); type: cell-based, human
SW-620 = test: NCI growth inhibition, SW-620 (Colon); type: cell-based, human
SF-268 = test: NCI growth inhibition, SF-268 (CNS); type: cell-based, human
[1] = test system: NCl human cancer cell-lines; test: In vitro inhibition of growth in NCI human cancer cell lines, all cell groups; type: cell-based; conditions: all cell groups tested
T-47D = test: NCI growth inhibition, T-47D (Breast); type: cell-based, human
A498 = test: NCI growth inhibition, A498 (Renal); type: cell-based, human
MOLT-4 = test: NCI growth inhibition, MOLT-4 (Leukemia); type: cell-based, human
MCF7 = test: NCI growth inhibition, MCF7 (Breast); type: cell-based, human
HT29 = test: NCI growth inhibition, HT29 (Colon); type: cell-based, human
HCT-116 = test: NCI growth inhibition, HCT-116 (Colon); type: cell-based, human
KM12 = test: NCI growth inhibition, KM12 (Colon); type: cell-based, human
ACHN = test: NCI growth inhibition, ACHN (Renal); type: cell-based, human
OVCAR-8 = test: NCI growth inhibition, OVCAR-8 (Ovarian); type: cell-based, human
NCI-H460 = test: NCI growth inhibition, NCI-H460 (NSC Lung); type: cell-based, human
LOX IMVI = test: NCI growth inhibition, LOX IMVI (Melanoma); type: cell-based, human
OVCAR-3 = test: NCI growth inhibition, OVCAR-3 (Ovarian); type: cell-based, human
EKVX = test: NCI growth inhibition, EKVX (NSC Lung); type: cell-based, human
HS 578T = test: NCI growth inhibition, HS 578T (Breast); type: cell-based, human
PKCδ-C1B = PKCδ-C1B (Homo sapiens (Human), UniProt Q05655); test: PKCδ-C1B Assay; type: binding
HCC-2998 = test: NCI growth inhibition, HCC-2998 (Colon); type: cell-based, human
SNB-19 = test: NCI growth inhibition, SNB-19 (CNS); type: cell-based, human
IGROVI = test: NCI growth inhibition, IGROVI (Ovarian); type: cell-based, human
MDA-MB-435 = test: NCI growth inhibition, MDA-MB-435 (Breast); type: cell-based, human
PC-3 = test: NCI growth inhibition, PC-3 (Prostate); type: cell-based, human
UACC-62 = test: NCI growth inhibition, UACC-62 (Melanoma); type: cell-based, human

Chain of PKCδ-C1B (Q05655 whole entry, looked up): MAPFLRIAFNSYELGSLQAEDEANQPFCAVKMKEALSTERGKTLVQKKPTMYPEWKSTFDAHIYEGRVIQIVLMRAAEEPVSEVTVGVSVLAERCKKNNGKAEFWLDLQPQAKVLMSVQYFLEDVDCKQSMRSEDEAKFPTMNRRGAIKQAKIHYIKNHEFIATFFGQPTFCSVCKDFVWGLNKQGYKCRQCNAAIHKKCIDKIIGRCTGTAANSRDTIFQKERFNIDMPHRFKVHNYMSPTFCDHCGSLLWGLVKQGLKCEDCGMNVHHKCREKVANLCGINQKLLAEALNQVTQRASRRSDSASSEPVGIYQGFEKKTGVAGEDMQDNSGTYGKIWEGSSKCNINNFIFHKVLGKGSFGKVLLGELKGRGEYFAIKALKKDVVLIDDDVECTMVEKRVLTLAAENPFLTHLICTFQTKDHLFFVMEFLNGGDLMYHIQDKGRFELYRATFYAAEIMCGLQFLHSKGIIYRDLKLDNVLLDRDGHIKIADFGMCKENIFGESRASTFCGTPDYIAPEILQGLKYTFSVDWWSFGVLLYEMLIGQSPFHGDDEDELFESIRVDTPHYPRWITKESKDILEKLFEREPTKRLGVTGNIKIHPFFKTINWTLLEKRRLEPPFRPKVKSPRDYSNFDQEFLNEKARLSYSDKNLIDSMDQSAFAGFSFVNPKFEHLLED

## CCCCCCCC(=O)OC1C(=CC(=O)OC)CC2CC(CO)OC(=O)CC(O)CC3CCCC(CC4CCOC(C=CC(C)(C)C1(O)O2)O4)O3 (centres unmarked) [Formula IIa (702.1)]
OVCAR-5; OVCAR-5
  Difference of GI50 (log), Desmethyl vs Bryo-1: −0.28
OVCAR-5; OVCAR-5, Ovarian
  GI50: −5.28 log of molar concentration
K-562; K-562
  Difference of GI50 (log), Desmethyl vs Bryo-1: −2.10
K-562; K-562, Leukemia
  GI50: −7.5 log of molar concentration
  more active than bryostatin-1: more than 2 orders of magnitude
HL-60(TB)
  Difference of GI50 (log), Desmethyl vs Bryo-1: −0.14
  GI50: −5.84 log of molar concentration
NCI/ADR-RES
  GI50: −4.74 log of molar concentration
BT-549; BT-549
  Difference of GI50 (log), Desmethyl vs Bryo-1: 0.39
BT-549; BT-549, Breast
  GI50: −4.71 log of molar concentration
SK-MEL-28; SK-MEL-28
  Difference of GI50 (log), Desmethyl vs Bryo-1: 0.43
SK-MEL-28; SK-MEL-28, Melanoma
  GI50: −4.67 log of molar concentration
SK-MEL-2; SK-MEL-2
  Difference of GI50 (log), Desmethyl vs Bryo-1: 0.18
SK-MEL-2; SK-MEL-2, Melanoma
  GI50: −5.02 log of molar concentration
OVCAR-4; OVCAR-4
  Difference of GI50 (log), Desmethyl vs Bryo-1: 0.35
OVCAR-4; OVCAR-4, Ovarian
  GI50: −5.15 log of molar concentration
COLO 205; COLO 205
  Difference of GI50 (log), Desmethyl vs Bryo-1: −1.68
COLO 205; COLO 205, Colon
  GI50: −7.08 log of molar concentration
HCT-15
  GI50: −4.76 log of molar concentration
SF-295; SF-295
  Difference of GI50 (log), Desmethyl vs Bryo-1: −0.85
SF-295; SF-295, CNS
  GI50: −6.05 log of molar concentration
A549/ATCC
  Difference of GI50 (log), Desmethyl vs Bryo-1: −1.42
A549/ATCC; NSC Lung
  GI50: −6.62 log of molar concentration
SR
  Difference of GI50 (log), Desmethyl vs Bryo-1: −0.10
SR; Leukemia
  GI50: −5.1 log of molar concentration
SK-OV-3; SK-OV-3
  Difference of GI50 (log), Desmethyl vs Bryo-1: 0.80
SK-OV-3; SK-OV-3, Ovarian
  GI50: −4.3 log of molar concentration
SNB-75; SNB-75
  Difference of GI50 (log), Desmethyl vs Bryo-1: 0.53
SNB-75; SNB-75, CNS
  GI50: −4.97 log of molar concentration
SW-620; SW-620
  Difference of GI50 (log), Desmethyl vs Bryo-1: 0.38
SW-620; SW-620, Colon
  GI50: −5.12 log of molar concentration
SF-268; SF-268
  Difference of GI50 (log), Desmethyl vs Bryo-1: 0.13
SF-268; SF-268, CNS
  GI50: −4.97 log of molar concentration
[1]
  potency relative to bryostatin-1, on average: at least as potent, on average, as bryostatin-1
T-47D
  Difference of GI50 (log), Desmethyl vs Bryo-1: 0.18
T-47D; Breast
  GI50: −5.02 log of molar concentration
A498; A498
  Difference of GI50 (log), Desmethyl vs Bryo-1: −1.38
A498; A498, Renal
  GI50: −6.38 log of molar concentration
MOLT-4; MOLT-4
  Difference of GI50 (log), Desmethyl vs Bryo-1: −2.50
MOLT-4; MOLT-4, Leukemia
  GI50: <−8.0 log of molar concentration
  more active than bryostatin-1: more than 2 orders of magnitude
MCF7; MCF7
  Difference of GI50 (log), Desmethyl vs Bryo-1: −0.20
MCF7; MCF7, Breast
  GI50: −5.4 log of molar concentration
HT29; HT29
  Difference of GI50 (log), Desmethyl vs Bryo-1: −0.25
HT29; HT29, Colon
  GI50: −5.55 log of molar concentration
HCT-116; HCT-116
  Difference of GI50 (log), Desmethyl vs Bryo-1: −0.02
HCT-116; HCT-116, Colon
  GI50: −5.32 log of molar concentration
KM12; KM12
  Difference of GI50 (log), Desmethyl vs Bryo-1: −0.14
KM12; KM12, Colon
  GI50: −5.34 log of molar concentration
ACHN
  Difference of GI50 (log), Desmethyl vs Bryo-1: −0.44
ACHN; Renal
  GI50: −5.94 log of molar concentration
OVCAR-8; OVCAR-8
  Difference of GI50 (log), Desmethyl vs Bryo-1: 0.33
OVCAR-8; OVCAR-8, Ovarian
  GI50: −4.77 log of molar concentration
NCI-H460; NCI-H460
  Difference of GI50 (log), Desmethyl vs Bryo-1: −2.40
NCI-H460; NCI-H460, NSC Lung
  GI50: <−8 log of molar concentration
  more active than bryostatin-1: more than 2 orders of magnitude
LOX IMVI
  Difference of GI50 (log), Desmethyl vs Bryo-1: −0.37
LOX IMVI; Melanoma
  GI50: −5.47 log of molar concentration
OVCAR-3; OVCAR-3
  Difference of GI50 (log), Desmethyl vs Bryo-1: 0.27
OVCAR-3; OVCAR-3, Ovarian
  GI50: −4.83 log of molar concentration
EKVX
  Difference of GI50 (log), Desmethyl vs Bryo-1: −0.28
EKVX; NSC Lung
  GI50: −5.58 log of molar concentration
HS 578T
  Difference of GI50 (log), Desmethyl vs Bryo-1: 0.02
HS 578T; Breast
  GI50: −5.18 log of molar concentration
PKCδ-C1B; 702.1 vs C26 methyl-containing analogue, 48, 49 vs other C20 esters
  activity in PKCδ-C1B assay relative to comparison analogues: significantly higher activity
PKCδ-C1B; competition with tritiated phorbol 12,13-dibutyrate
  Ki: 0.3 ± 0.07 nM
HCC-2998; HCC-2998
  Difference of GI50 (log), Desmethyl vs Bryo-1: −2.24
HCC-2998; HCC-2998, Colon
  GI50: −7.54 log of molar concentration
  more active than bryostatin-1: more than 2 orders of magnitude
SNB-19; SNB-19
  Difference of GI50 (log), Desmethyl vs Bryo-1: −0.20
SNB-19; SNB-19, CNS
  GI50: −5.2 log of molar concentration
IGROVI
  Difference of GI50 (log), Desmethyl vs Bryo-1: 0.42
IGROVI; Ovarian
  GI50: −4.88 log of molar concentration
MDA-MB-435; MDA-MB-435
  Difference of GI50 (log), Desmethyl vs Bryo-1: −2.56
MDA-MB-435; MDA-MB-435, Breast
  GI50: −7.66 log of molar concentration
  more active than bryostatin-1: more than 2 orders of magnitude
PC-3; PC-3
  Difference of GI50 (log), Desmethyl vs Bryo-1: −0.30
PC-3; PC-3, Prostate
  GI50: −5.6 log of molar concentration
UACC-62; UACC-62
  Difference of GI50 (log), Desmethyl vs Bryo-1: 0.19
UACC-62; UACC-62, Melanoma
  GI50: −5.11 log of molar concentration
